We go through six compounds from patent publication US11083729B2, “Methods of treating cancer with small molecule NF-κB inhibitors” (ImmuneTarget, Inc., priority 2017, dated 2021).

One may read the pIC50 as the IC50 on a negative log10 scale, so that one unit is a factor of ten. Read a high pIC50 as a small IC50.

SMILES strings stand for the structures. pIC50: −log10 of the molar value.

Holding throughout (assay type): cell-based
Assay [1] deals with HUH7. Briefly: CellTiter-Glo IG50, Example 9 HCC panel, HUH7. Particulars: Homo sapiens, Huh-7, HUH7, 72 hours. The method, then:
(§1) The cells were harvested during the logarithmic growth period and counted. Cell concentrations were adjusted to the appropriate number in appropriate medium and 90 μl cell suspensions were added to 96-well plates. When cells were added, the plates were shaken gently to distribute the cells evenly. Cells were incubated at 37° C. and 5% CO2.
(§2) 3× serial dilutions of test compound stock solutions with respective solvents were prepared. The stock solutions were diluted with culture medium to generate 10× working solutions of the test compounds. 10 μl of the 10× test compound solutions were added to each well in triplicate for each concentration. Plates were incubated for 72 hours in a humidified incubator at 37° C. and 5% CO2.
(§3) CellTiter-Glo (CTG) solution was thawed and equilibrated to room temperature. 50 μl of CTG were added to each well and the contents were mixed for 2 minutes on a plate shaker. Cells were incubated for 10 minutes before luminescence signal was recorded using Envision.
(§4) Cell viability was plotted with GraphPad Prism version 5 and the IG50 was calculated for each cell line. The graphical curves were fitted using a nonlinear regression model with a sigmoidal dose response. IG50 is the concentration of test drug where 100×T/C=50 (the optical density of the test well after a 3-day period of exposure to test drug is T; the control optical density is C).
(§5) The cells were cultured in an atmosphere of 37° C., 5% CO2 and 95% humidity. All culture media and FBS were purchased from GIBCO, Hyclone or Sigma, USA. The media used for cell culture is described in the table below.
(§6) Following the cell culture protocol and data analysis methods described in Example 8, the following IG50 results (in μM) were observed: […]
(Cellular ATP, detected with luciferase, serves as a proxy for viable cell number.)

The subject of assay [2] is Hep3B. Put plainly: CellTiter-Glo IG50, Example 9 HCC panel, Hep3B. Particulars: Homo sapiens, 72 hours. The method, then:
as §1, §2, §3, §4, §5, §6

Assay [3] relates to HepG2. Briefly: CellTiter-Glo IG50, Example 10 HCC panel, HepG2. Particulars: Homo sapiens, HepG2, 72 hours. The method, then:
as §1, §2, §3, §4, §5
(§7) Following the cell culture protocol and data analysis method described in Example 8, the following IG50 results (in μM) were observed: […]

For assay [4], the system named is PLC/PRF/5. Briefly: CellTiter-Glo IG50, Example 10 HCC panel, PLC/PRF/5. Particulars: Homo sapiens, PLC/PRF/5, 72 hours. The method, then:
as §1, §2, §3, §4, §5, §7

For assay [5], the system named is HepG2. Put plainly: CellTiter-Glo IG50, Example 9 HCC panel, HepG2. Particulars: Homo sapiens, HepG2, 72 hours. The method, then: as §1, §2, §3, §4, §5, §6
Assay [6] concerns PBMC. Put plainly: CellTiter-Glo IG50, Example 10 HCC panel, PBMC. Particulars: 72 hours. The method, then: as §1, §2, §3, §4, §5, §7
For assay [7], the system named is JHH5. Put plainly: CellTiter-Glo IG50, Example 10 HCC panel, JHH5. Particulars: JHH5, 72 hours. The method, then:
as §1, §2, §3, §4, §5, §7

The subject of assay [8] is PLC/PRF/5. Briefly: CellTiter-Glo IG50, Example 9 HCC panel, PLC/PRF/5. Particulars: Homo sapiens, PLC/PRF/5, 72 hours. The method, then: as §1, §2, §3, §4, §5, §6
For assay [9], the system named is PBMC. Briefly: CellTiter-Glo IG50, Example 9 HCC panel, PBMC. Particulars: 72 hours. The method, then:
as §1, §2, §3, §4, §5, §6

Assay [10] deals with JHH5. Put plainly: CellTiter-Glo IG50, Example 9 HCC panel, JHH5. Particulars: JHH5, 72 hours. The method, then:
as §1, §2, §3, §4, §5, §6

Assay [11] deals with HUH7. Put plainly: CellTiter-Glo IG50, Example 10 HCC panel, HUH7. Particulars: Homo sapiens, Huh-7, HUH7, 72 hours. The method, then:
as §1, §2, §3, §4, §5, §7

The subject of assay [12] is SNU878. Put plainly: CellTiter-Glo IG50, Example 10 HCC panel, SNU878. Particulars: SNU878, 72 hours. The method, then:
as §1, §2, §3, §4, §5, §7

The test system of assay [13] is SNU878. Put plainly: CellTiter-Glo IG50, Example 9 HCC panel, SNU878. Particulars: SNU878, 72 hours. The method, then: as §1, §2, §3, §4, §5, §6
In assay [14] the test system is Hep3B. Put plainly: CellTiter-Glo IG50, Example 10 HCC panel, Hep3B. Particulars: Homo sapiens, 72 hours. The method, then:
as §1, §2, §3, §4, §5, §7

The subject of assay [15] is Capan-1. Briefly: CellTiter-Glo IG50, Example 8, Capan-1. Particulars: Homo sapiens, Capan-1, 72 hours. The method, then: (§8) Various pancreatic, liver, colon, breast, and stomach cancer cell lines were exposed to the NF-κB inhibitors of the present invention, including, for example, IT-839, IT-843, IT-848, and IT-878, and assessed for IG50 in the CellTiter Glo 2.0 assay.
as §5, §1, §2, §3, §4

Assay [16] deals with HT-29. Put plainly: CellTiter-Glo IG50, Example 8, HT-29. Particulars: Homo sapiens, HT-29, 72 hours. The method, then:
as §8, §5, §1, §2, §3, §4

The test system of assay [17] is LoVo. Put plainly: CellTiter-Glo IG50, Example 8, LoVo. Particulars: Homo sapiens, 72 hours. The method, then: as §8, §5, §1, §2, §3, §4
The subject of assay [18] is MKN45. Put plainly: CellTiter-Glo IG50, Example 8, MKN45. Particulars: Homo sapiens, MKN-45, MKN45, 72 hours. The method, then: as §8, §5, §1, §2, §3, §4
For assay [19], the system named is MCF-7. Put plainly: CellTiter-Glo IG50, Example 8, MCF-7. Particulars: Homo sapiens, MCF7, MCF-7, 72 hours. The method, then:
as §8, §5, §1, §2, §3, §4

Assay [20] relates to MIAPACA-2. Briefly: CellTiter-Glo IG50, Example 8, MIAPACA-2. Particulars: Homo sapiens, MIA PaCa-2, MIAPACA-2, 72 hours. The method, then: as §8, §5, §1, §2, §3, §4
Assay [21] concerns HCT116. Put plainly: CellTiter-Glo IG50, Example 8, HCT116. Particulars: Homo sapiens, HCT-116, HCT116, 72 hours. The method, then: as §8, §5, §1, §2, §3, §4
In assay [22] the test system is PANC-1. Put plainly: CellTiter-Glo IG50, Example 8, PANC-1. Particulars: Homo sapiens, PANC-1, 72 hours. The method, then: as §8, §5, §1, §2, §3, §4
Assay [23] deals with AGS. Put plainly: CellTiter-Glo IG50, Example 8, AGS. Particulars: Homo sapiens, 72 hours. The method, then:
as §8, §5, §1, §2, §3, §4

Assay [24] has as its system HepG2. Put plainly: CellTiter-Glo IG50, Example 8, HepG2. Particulars: Homo sapiens, HepG2, 72 hours. The method, then:
as §8, §5, §1, §2, §3, §4

The subject of assay [25] is KATO III. Briefly: CellTiter-Glo IG50, Example 8, KATO III. Particulars: Homo sapiens, 72 hours. The method, then: as §8, §5, §1, §2, §3, §4
Assay [26] has as its system Hep3B. Put plainly: CellTiter-Glo IG50, Example 8, Hep3B. Particulars: Homo sapiens, 72 hours. The method, then:
as §8, §5, §1, §2, §3, §4

Assay [27] relates to T47D. Briefly: CellTiter-Glo IG50, Example 8, T47D. Particulars: Homo sapiens, 72 hours. The method, then:
as §8, §5, §1, §2, §3, §4

The test system of assay [28] is PLC/PRF/5. Briefly: CellTiter-Glo IG50, Example 8, PLC/PRF/5. Particulars: Homo sapiens, PLC/PRF/5, 72 hours. The method, then: as §8, §5, §1, §2, §3, §4
For assay [29], the system named is MDA-MB-231. Put plainly: CellTiter-Glo IG50, Example 8, MDA-MB-231. Particulars: Homo sapiens, MDA-MB-231, 72 hours. The method, then:
as §8, §5, §1, §2, §3, §4

`CC(C)(C)CCOc1ccc2cc3c(=O)[nH]c(=O)nc-3oc2c1Cl` [IT-845]: the negative-log IC50 (pIC50) in assay [1] is 5.57; in [2], 5.74; in [3] it was 5.16; in assay [4] it was 5.04; in [5] it was 5.38; in [6], 5.62. Besides, the pIC50 in assay [7] is 5.00; in [8], 5.12; in assay [9], 6.56; in assay [10], 5.09; in [11] it was 5.22; in [12], 5.01. Besides, the pIC50 is 4.97 in assay [13] and 5.40 in assay [14].

With `COCCCCOc1ccc2cc3c(=O)[nH]c(=O)nc-3oc2c1Cl` [IT-878], the pIC50 is under 4.80 in assay [15]; under 4.80 in assay [16]; under 4.80 in assay [17]; under 4.80 in assay [18]; under 4.80 in assay [19]; 4.75 in [20]. The pIC50 in [21] is under 4.80; in assay [22], under 4.80; in assay [23] it was under 4.80; in assay [24] it was under 4.80; in [25] it was under 4.80; in assay [26] it was 5.46. Besides, the negative-log IC50 (pIC50) in assay [27], in assay [28] and in [29] was under 4.80 each time.

On to `CCCCCCOc1ccc2cc3c(=O)[nH]c(=O)nc-3oc2c1Cl` [IT-848], for which the pIC50 in assay [1] is 5.37; in assay [2], 5.45; in assay [15] it was under 4.80; in assay [16] it was under 4.80; in assay [3] it was 5.00; in assay [17] it was 5.30. For the same compound, the pIC50 was under 4.80 in [4]; under 4.80 in assay [18]; 5.29 in [19]; under 4.80 in [20]; under 4.80 in assay [21]; 5.23 in assay [5]. The pIC50 in [6] was 5.44; in [22] it was 5.01; in [7] it was 4.87; in assay [23], 5.12; in [8] it was under 4.80; in assay [9], 5.92. The negative-log IC50 (pIC50) in [24] was 5.17; in [25] it was under 4.80; in assay [26], 5.61; in assay [10], 4.89; in [11], 5.11; in assay [12], under 4.80. Besides, the pIC50 in assay [13] was 4.84; in assay [27], 5.21; in assay [28], under 4.80; in assay [29] it was 5.63; in assay [14] it was 5.22.

As to `CCCCCOc1ccc2cc3c(=O)[nH]c(=O)nc-3oc2c1Cl` [IT-843], the pIC50 in assay [1] is 5.29; in assay [2], 5.44; in [15], under 4.80; in assay [16], 5.18; in assay [17], 5.54; in [18] it was under 4.80. The pIC50 in [19] is 5.17; in [20] it was 4.99; in assay [21], 5.03; in [5], 5.34; in [22], 5.26; in assay [23], 5.35. Moreover, the pIC50 in [8] is under 4.80; in [9], 5.96; in assay [24] it was 5.40; in assay [25], under 4.80; in assay [26] it was 5.85; in [10] it was 4.88. For the same compound, the pIC50 in assay [13] was under 4.80; in assay [27] it was 5.30; in [28] it was under 4.80; in assay [29], 5.57.

As for `CNC(=O)c1cc(Oc2ccc(NC(=O)Nc3ccc(Cl)c(C(F)(F)F)c3)cc2)ccn1` [Sorafenib, sorafenib, reference compound], the pIC50 was 5.18 in assay [1]; 5.12 in assay [2]; 5.36 in [3]; 4.99 in [4]; 5.50 in assay [5]; 4.84 in assay [6]. Besides, the pIC50 in assay [7] is 5.15; in assay [8], 4.97; in assay [9] it was 4.71; in [24], 5.29; in assay [26], 5.13; in assay [10] it was 5.49. In addition, the pIC50 in assay [11] was 5.29; in assay [12], 4.97; in assay [13] it was 4.90; in [28], 4.97; in assay [14], 5.19.

For the compound `CC(C)CCCOc1cc2oc3nc(=O)[nH]c(=O)c-3cc2cc1F` [IT-839], the pIC50 in assay [15] is under 4.80; in assay [16], under 4.80; in assay [17], 5.36; in [18] it was under 4.80; in [19], under 4.80; in assay [20], under 4.80. For the same compound, the pIC50 is under 4.80 in assay [21]; 5.16 in [22]; under 4.80 in assay [23]; 4.98 in assay [24]; under 4.80 in [25]; 5.48 in assay [26]. For the same compound, the pIC50 is under 4.80 in [27], under 4.80 in [28] and 5.70 in assay [29].
